Test results published in article PMC2980852 (Biochemistry, 2010).

Target: LuxG (Photobacterium leiognathi, UniProt P29237)
Experiment: stopped-flow NADH fluorescence, amplitude titration
Type: binding

Chain of LuxG (P29237 whole entry): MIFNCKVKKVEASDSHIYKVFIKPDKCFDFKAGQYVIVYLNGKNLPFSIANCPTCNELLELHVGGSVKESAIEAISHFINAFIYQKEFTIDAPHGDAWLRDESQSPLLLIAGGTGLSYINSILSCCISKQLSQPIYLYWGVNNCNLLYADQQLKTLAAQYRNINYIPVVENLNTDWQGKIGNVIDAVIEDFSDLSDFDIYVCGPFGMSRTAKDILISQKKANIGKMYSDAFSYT

With `NC(=O)C1=CN([C@@H]2O[C@H](COP(=O)(O)OP(=O)(O)OC[C@H]3O[C@@H](n4cnc5c(N)ncnc54)[C@H](O)[C@@H]3O)[C@@H](O)[C@H]2O)C=CC1` [NADH] the Kd was 25 ± 4 µM.
